In assay [1] the target is FGFR2 (Homo sapiens (Human), UniProt P21802). The assay can be described thus: FGFR2 Biochemical Caliper Assay. On the procedure:
Compounds of the present invention were also tested in a FGFR2 Biochemical Caliper Assay. Compounds were prepared in 10 mM DMSO solution and serially diluted into 11 concentrations by 3-fold dilution. […] 5 uL of ATP solution (100 uM) was added to start the reaction and the plate was incubated for 90 minutes, then 70 uL of stopping buffer (0.5M EDTA) was added to terminate the reaction. Each well was analyzed using EZ reader.

For assay [2], the system named is SNU16 cells. The assay can be described thus: SNU16 Cancer Cell Line Proliferation Assay. The settings on record: Homo sapiens; SNU-16 cells. The assay is classed as cell-based. The method, then: Compounds of the present invention were also tested in a SNU16 Cancer Cell Line Proliferation Assay, Test compounds were prepared in a 10 mM DMSO stock solution. 45 uL of stock solution was transferred to a 384 well plate, and a 3-fold 11-point dolution was performed. SNU16 cells in a 384 well cell culture plate were seeded and incubated at 37 degrees for 24 hours. 40 nL of each concentration of compound was transferred from the compound plate to a corresponding well in the cell culture plate by Echo550 liquid handler. The plates were incubated for 96 hours, then equilibrated to room temperature for 15 minutes. 20 uL of CellTiter Glo reagent is added into each well, then the plate was shaken gently for 30 minutes at room temperature. Chemiluminescence was then read on an EnVision reader.

Chain of FGFR2 (P21802 22-821): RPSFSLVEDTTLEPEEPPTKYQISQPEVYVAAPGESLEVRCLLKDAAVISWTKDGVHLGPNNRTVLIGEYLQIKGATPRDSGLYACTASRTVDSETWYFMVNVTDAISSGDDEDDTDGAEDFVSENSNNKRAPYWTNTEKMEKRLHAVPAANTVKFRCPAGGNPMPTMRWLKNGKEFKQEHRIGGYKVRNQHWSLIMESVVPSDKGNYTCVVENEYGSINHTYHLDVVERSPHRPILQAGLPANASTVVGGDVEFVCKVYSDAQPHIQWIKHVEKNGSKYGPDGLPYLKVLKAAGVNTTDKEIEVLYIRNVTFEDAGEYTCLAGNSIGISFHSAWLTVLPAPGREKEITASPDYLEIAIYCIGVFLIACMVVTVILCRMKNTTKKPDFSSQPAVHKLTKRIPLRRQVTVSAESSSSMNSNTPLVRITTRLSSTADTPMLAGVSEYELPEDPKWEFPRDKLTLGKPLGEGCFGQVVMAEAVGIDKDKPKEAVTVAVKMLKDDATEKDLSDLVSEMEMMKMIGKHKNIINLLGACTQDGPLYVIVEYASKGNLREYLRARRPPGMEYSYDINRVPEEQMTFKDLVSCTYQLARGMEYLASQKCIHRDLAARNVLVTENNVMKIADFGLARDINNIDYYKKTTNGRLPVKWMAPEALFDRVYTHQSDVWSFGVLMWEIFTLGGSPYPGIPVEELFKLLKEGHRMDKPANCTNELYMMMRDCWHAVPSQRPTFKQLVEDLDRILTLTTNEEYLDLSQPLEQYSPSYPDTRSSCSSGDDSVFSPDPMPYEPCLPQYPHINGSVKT

The IC50 is the concentration that gives 50% inhibition. Low readings indicate greater potency in that assay, high ones weaker potency in that assay. Take `C=CC(=O)Nc1ccc(-c2c(-c3ccc(Oc4ncc(CO)cn4)c(OC)c3)c3c(N)ncnc3n2C)cc1` [Example 60]: the IC50 in assay [1] is < 100 nM; in assay [2], 250 to 1000 nM.
As for `C=C(C)C(=O)Nc1ccc(-c2c(-c3ccc(Oc4nccc(C)n4)c(F)c3)c3c(N)ncnc3n2C)c(C)c1` [Example 529], the IC50 in assay [1] is < 100 nM; in assay [2], ≤ 100 nM.
For the molecule `C=C(C)C(=O)N1CCC(n2cc(-c3c(-c4ccc(OC)cc4)c4c(N)ncnc4n3C)cn2)CC1` [Example 653], the IC50 in assay [1] fell in the range of 250 to 1000 nM; in assay [2], 1000 to 100000 nM.
The matching figures for `C=C(C)C(=O)Nc1ccc(-c2c(-c3ccc(C(=O)NCC(C)(C)C#N)cc3)c3c(N)ncnc3n2C)cc1` [Example 373]: < 100 nM and ≤ 100 nM.
The matching figures for `C=CC(=O)N1CC[C@H](c2[nH]c3ncnc(N)c3c2-c2ccc(Oc3ncccn3)cc2)C1` [Example 730]: 250 to 1000 nM and 1000 to 100000 nM.
The matching figures for `C=C(C)C(=O)Nc1ccc(-c2c(-c3ccc(C(=O)NCC4CCC4)c(F)c3)c3c(N)ncnc3n2C)nc1` [Example 589]: < 100 nM and ≤ 100 nM.
With `C=C(C)C(=O)Nc1ccc(-c2c(-c3ccc(Oc4nccc(C)n4)c(F)c3F)c3c(N)ncnc3n2C)cc1` [Example 552], the figures for the IC50 in assay [1] and in assay [2] were < 100 nM and ≤ 100 nM, respectively.
Taken in the same sequence, the figures for `C=C(C)C(=O)Nc1ccc(-c2c(-c3ccc(Oc4nccc(C)n4)c(C#N)c3)c3c(N)ncnc3n2C)cc1` [Example 508] were < 100 nM and ≤ 100 nM.
The matching figures for `C=C(C)C(=O)Nc1ccc(-c2c(-c3ccc(C(=O)N4CCCCC4COC)cc3)c3c(N)ncnc3n2C)cc1` (stereo not drawn) [Example 369]: < 100 nM and ≤ 100 nM.
Taken in the same sequence, the figures for `C=Cc1ncc2cc(-c3c(-c4ccc(C(=O)N5CCCC5)cc4)c4c(N)ncnc4n3C)ccc2n1` [Example 573] were 1000 to 100000 nM and 250 to 1000 nM.
On to `Cn1c(-c2ccc(NC(=O)C3=CCC3)cc2)c(C2=CC[C@@H](C(=O)N3CCCC3)CC2)c2c(N)ncnc21` (single isomer, unassigned) [Example 565], for which the half-maximal inhibitory concentration (IC50) is < 100 nM in assay [1] and ≤ 100 nM in assay [2].
The matching figures for `C=C(C)C(=O)Nc1ccc(-c2c(-c3ccc(Oc4ncc(C)cn4)cc3)c3c(N)ncnc3n2C)cc1` [Example 339]: 100 to 250 nM and ≤ 100 nM.
Taken in the same sequence, the figures for `C=CC(=O)N1CCC(c2c(-c3ccc(OCC(F)(F)F)nc3)c3c(N)ncnc3n2C)C1` (stereo not drawn) [Example 733] were 250 to 1000 nM and 250 to 1000 nM.
Take `C=CC(=O)N1CCC(c2c(-c3ccc(Cn4ccc(C)n4)cc3)c3c(N)ncnc3n2C)C1` (stereo not drawn) [Example 776]: the results for the IC50 in assay [1] and in assay [2] were < 100 nM and ≤ 100 nM, respectively.
Taken in the same sequence, the figures for `C=C(C)C(=O)Nc1ccc(-c2c(C3=CCC(Oc4ncc(F)cn4)CC3)c3c(N)ncnc3n2C)cc1` (stereo not drawn) [Example 458] were 100 to 250 nM and ≤ 100 nM.
Taken in the same sequence, the figures for `C=C(C)C(=O)Nc1ccc(-c2c(-c3ccc(Oc4cccc(C)n4)c(OCCOC)c3)c3c(N)ncnc3n2C)cc1` [Example 378] were 1000 to 100000 nM and 250 to 1000 nM.
Taken in the same sequence, the figures for `C=CC(=O)N1CCC(c2c(-c3ccc(COC)cc3)c3c(N)ncnc3n2C)C1` (stereo not drawn) [Example 721] were 250 to 1000 nM and 250 to 1000 nM.
Consider `C=CC(=O)N1CCC(c2c(-c3ccc(N4CCCC4)cc3)c3c(N)ncnc3n2C)C1` (stereo not drawn) [Example 719], for which the IC50 in assay [1] is < 100 nM; in assay [2], ≤ 100 nM.
The matching figures for `C=CC(=O)Nc1ccc(-c2c(-c3ccc(C(=O)N4CCCC4)cc3)c3c(N)ncnc3n2C)cc1` [Example 128]: < 100 nM and ≤ 100 nM.
Taken in the same sequence, the figures for `C=C(C)C(=O)Nc1ccc(-c2c(-c3ccc(C(=O)NC4CCCC4)cc3)c3c(N)ncnc3n2C)cc1` [Example 212] were < 100 nM and ≤ 100 nM.
The matching figures for `C=CC(=O)N1CCC(c2c(-c3cnn(-c4ccccn4)c3)c3c(N)ncnc3n2C)C1` (stereo not drawn) [Example 779]: 1000 to 100000 nM and 1000 to 100000 nM.
In the case of `C=C(C)C(=O)Nc1ccc(-c2c(-c3ccc(Oc4ccn(C)n4)cc3)c3c(N)ncnc3n2C)cc1` [Example 267], the IC50 in assay [1] was < 100 nM; in assay [2], ≤ 100 nM.
The matching figures for `C=CC(=O)Nc1ccc(-c2c(C3=CCC(C(=O)N(C)C)CC3)c3c(N)ncnc3n2C)cc1` (stereo not drawn) [Example 296]: < 100 nM and ≤ 100 nM.
Taken in the same sequence, the figures for `C=CC(=O)N1CCC(c2[nH]c3ncnc(N)c3c2-c2ccc(Oc3ncccn3)cc2)C1` (stereo not drawn) [Example 709] were < 100 nM and ≤ 100 nM.
The matching figures for `C=C(C)C(=O)Nc1ccc(-c2c(-c3ccc(S(=O)(=O)NC4CCCC4O)cc3)c3c(N)ncnc3n2C)cc1` (stereo not drawn) [Example 309]: 1000 to 100000 nM and 250 to 1000 nM.
Consider `C=C(C)C(=O)Nc1ccc(-c2c(-c3ccc(C(=O)N(C)CC(C)C)cc3)c3c(N)ncnc3n2C)cc1` [Example 410], for which the IC50 is < 100 nM in assay [1] and ≤ 100 nM in assay [2].
For the molecule `C=CC(=O)Nc1ccc(-c2c(-c3ccc(Oc4ncccn4)c(CC)c3)c3c(N)ncnc3n2C)cc1` [Example 48], the IC50 in assay [1] was < 100 nM; in assay [2], ≤ 100 nM.
Taken in the same sequence, the figures for `C=C(C)C(=O)Nc1ccc(-c2c(-c3ccc(C(=O)N(C)C4CCC4)cc3)c3c(N)ncnc3n2C)cc1` [Example 227] were 100 to 250 nM and 100 to 250 nM.
Taken in the same sequence, the figures for `C=CC(=O)N1CCC(c2c(-c3cnn(C4CCN(C)CC4)c3)c3c(N)ncnc3n2C)C1` (stereo not drawn) [Example 743] were 250 to 1000 nM and 1000 to 100000 nM.
Taken in the same sequence, the figures for `C=CC(=O)N1CCC(c2c(-c3ccc(Oc4ncc(Cl)cn4)cc3)c3c(N)ncnc3n2C)C1` (stereo not drawn) [Example 739] were 100 to 250 nM and ≤ 100 nM.
`C=CC(=O)Nc1ccc(-c2c(-c3ccc(Oc4ncccn4)c(C(F)(F)F)c3)c3c(N)ncnc3n2C)cc1` [Example 47]: the results for the IC50 in assay [1] and in assay [2] were < 100 nM and ≤ 100 nM, respectively.
As for `C=CC(=O)N1CC=C(c2c(-c3ccc(Oc4cncc(C)c4)c(OC)c3)c3c(N)ncnc3n2C)CC1` [Example 678], the IC50 is < 100 nM in assay [1] and 100 to 250 nM in assay [2].
The matching figures for `C=CC(=O)N1CC=C(c2c(-c3ccc(Oc4ccc(C)cn4)c(OC)c3)c3c(N)ncnc3n2C)CC1` [Example 683]: < 100 nM and ≤ 100 nM.
Regarding `C=CC(=O)N1CCC(c2[nH]c3ncnc(N)c3c2-c2ccc(C(=O)N3CCCC3)cc2)C1` (stereo not drawn) [Example 746], the IC50 in assay [1] was < 100 nM; in assay [2] it was 250 to 1000 nM.
Taken in the same sequence, the figures for `C=C(C)C(=O)Nc1ccc(-c2c(-c3ccc(Oc4cccc(C)n4)c(CN(C)C)c3)c3c(N)ncnc3n2C)cc1` [Example 475] were 1000 to 100000 nM and 250 to 1000 nM.
The matching figures for `C=C(C)C(=O)Nc1ccc(-c2c(-c3ccc(C(=O)N4CC5CC5C4)cc3)c3c(N)ncnc3n2C)c(F)c1` (stereo not drawn) [Example 487]: < 100 nM and ≤ 100 nM.
The matching figures for `C=CC(=O)Nc1ccc(-c2c(-c3ccc(Oc4cccc(CC)n4)c(OC)c3)c3c(N)ncnc3n2C)cc1` [Example 50]: < 100 nM and ≤ 100 nM.
As to `C=C(C)C(=O)Nc1ccc(-c2c(-c3ccc(C(=O)N4CCCC[C@@H]4C)cc3)c3c(N)ncnc3n2C)cc1` [Example 292], the values for the IC50 in assay [1] and in assay [2] were < 100 nM and ≤ 100 nM, respectively.
Taken in the same sequence, the figures for `C=CC(=O)N1CCC(c2c(-c3ccc(Oc4cccc(C)n4)c(OC)c3)c3c(N)ncnc3n2C)C1` (stereo not drawn) [Example 670] were 250 to 1000 nM and 250 to 1000 nM.
The matching figures for `C=C(C)C(=O)Nc1ccc(-c2c(-c3ccc(Oc4nccc(C)n4)cc3)c3c(N)ncnc3n2C)cc1` [Example 382]: < 100 nM and ≤ 100 nM.
Taken in the same sequence, the figures for `C=C(C)C(=O)Nc1ccc(-c2c(-c3ccc(S(=O)(=O)NC4CCC4)cc3)c3c(N)ncnc3n2C)cc1` [Example 311] were 250 to 1000 nM and 250 to 1000 nM.
For `C=C(C)C(=O)Nc1ccc(-c2c(-c3ccc(Cn4nccc4C)cc3)c3c(N)ncnc3n2C)cc1` [Example 266], the IC50 was 1000 to 100000 nM in assay [1] and 250 to 1000 nM in assay [2].
Turning to `C=C(C)C(=O)Nc1ccc(-c2c(-c3ccc(C(=O)N4CC5CCC(C5)C4)cc3)c3c(N)ncnc3n2C)cc1` [Example 299], the IC50 is < 100 nM in assay [1] and ≤ 100 nM in assay [2].
The matching figures for `C=C(C)C(=O)Nc1ccc(-c2c(C3=CCC(C(=O)NC)CC3)c3c(N)ncnc3n2C)cc1` (stereo not drawn) [Example 201]: 1000 to 100000 nM and 250 to 1000 nM.
The matching figures for `C=C(C)C(=O)Nc1ccc(-c2c(-c3ccc(Oc4nccc(C)n4)cc3F)c3c(N)ncnc3n2C)cc1` [Example 425]: < 100 nM and ≤ 100 nM.
The matching figures for `C=C(C)C(=O)Nc1ccc(-c2c(-c3ccc(Oc4nccc(C)n4)c(C(F)F)c3)c3c(N)ncnc3n2C)cc1` [Example 594]: 100 to 250 nM and ≤ 100 nM.
As for `C=C(C)C(=O)Nc1ccc(-c2c(-c3ccc(S(=O)(=O)NCC(C)C)cc3)c3c(N)ncnc3n2C)cc1` [Example 303], the IC50 in assay [1] and in assay [2] was 250 to 1000 nM each time.
As to `C=C(C)C(=O)Nc1ccc(-c2c(-c3ccc(C(=O)N4CCCCC4C)cc3)c3c(N)ncnc3n2C)cc1` (stereo not drawn) [Example 189], the IC50 in assay [1] was < 100 nM; in assay [2], ≤ 100 nM.
